In data set [1] the test system is male SPF rats (conditioned avoidance response). The data set can be described thus: Pole climb avoidance test. As to conditions: rat; for ED50 / ED (90-100): im, intramuscular in sesame oil; for ED50: at peak of action, read-out: Blockade of Avoidance Response (BAR), acute ED50; for ED (90-100): dose giving 90-100% block within 24 hours, read-out: Blockade of Avoidance Response (BAR), acute 100% BAR dose. Type of data set: in vivo. From the text:
In vivo activity. Pole Climb Avoidance Test. In the pole climb test, antipsychotics characteristically disrupt an acquired discrete conditioned avoidance behavior in doses well below those which suppress the response to unconditioned stimuli (escape). The principle of the test procedure was described by Courvoisier S. et al. (Arch. Int. Pharmacodyn 92, 305, 1954), Cook, L. et al. (Ann. N.Y. Acad. Sci. 66, 740-752, 1957) and Pfeiffer, C. et al. (Ann, N.Y. Acad. Sci. 66, 753-764, 1957).
The animals were male SPF rats (stock Fuellinsdorf Albino, outbred) weighing 200-220 g at the end of a discrete conditioned avoidance training.
The test apparatus was a sound-attenuated plexiglass chamber (41×30×30 cm). The floor was a grid consisting of 27 stainless steel rods, to which a scrambled current of 0,8 mA could be delivered by means of a stimulator. The safety area was a vertical pole (4,3 cm diameter, 24 cm long) attached to the top of the chamber. The free lower end of the pole was 6 cm above the grid floor. A buzzer was mounted within the testing enclosure.
The rats were placed in the plexiglass chamber and trained to jump to the pole during a buzzer stimulus (conditioned stimulus CS) lasting 10 sec, in order to avoid an immediately following electrical footshock (unconditioned stimulus US) of 30 sec duration delivered to the grid floor in addition to the CS. If the rat climbed to the pole during the CS or CS plus US, the stimuli (buzzer, footshock) were immediately terminated.
The pole climb response occurring during the CS period is called an avoidance response or conditioned response (CAR or CR), that occurring during exposure to CS plus US escape response of unconditioned response (UER or UR). Following one training trial (exposure to one CS and US respectively) the rats were returned to their home cage. After 15-17 trials rats were jumping during the buzzer stimulation only and were ready for drug testing.
A group of 10 trained rats was used per dose (graded doses, geometric progression: factor 3.16). The test compounds were administered intramuscularly in a sesame oil solution containing 25 mg of compounds per ml of solution.
Dose-effect curves of block of conditioned response (BCR) were constructed by plotting the log dose against the effect (in percent BCR) at the peak of action. From these curves the ED50 for BCR were graphically determined. The potency of a drug for suppressing CR was expressed by the ED50 for BCR. For the evaluation of the long-term effect, a drug dose eliciting a non-supra-maximal 90-100% block of avoidance response within 24 hours was followed up at 24 hour intervals.

In the next data set the target is T1, dopamine receptors (Rattus norvegicus, UniProt P61169).
T1 construct: rat striatal brain homogenates; from tissue; host or cells: rat striatum (brain homogenate)
The data set can be described thus: 3H-spiroperidol binding test in rat striatal brain homogenates. As to conditions: 0.2 nanomolar 3H-spiroperidol, 20 min incubation, no esterases, read-out: 3H-Spiroperidol binding in vitro, IC50. As for the experimental part: Spiroperidol binding test. In the absence of esterases which trigger the release of the compound of formula II from the compound of formula I, there is only weak activity in the 3H-spiroperiodol binding assay, an in vitro test which measures binding to dopamine receptors. In this test, rat striatal brain homogenates were incubated for 20 min. in the presence of 0.2 nanomolar ^3 H-spiroperidol and varying concentrations of test compounds. The incubations were terminated by rapid filtration through Whatman GF/B filters. followed by 2×5 mL washes with ice-cold assay buffer (50 mM tribase-HCl pH 7.7 which contains fixed concentrations of 0.1% ascorbic acid, 120 mM sodium chloride, 5 mM potassium chloride, 2 mM calcium chloride, and 1 mM magnesium chloride).

A short description of data set [2]: Esterase cleavage of prodrug esters by incubation with rat liver homogenate. It counts as in vitro ADME. As to conditions: liver 9000xg supernatant, rat liver 9,000×g supernatant, pH 7.4, 37° C., 0.5 μmole substrate, read-out: Formation of IIa (piquindone) as % of incubated test compound I in 1 hr. Here is the method:
In this test, acetone solutions of the test compounds (0.5 μmole/50 μL) were added to an incubation medium consisting of 2.7 ml 0.1M potassium hydrogenphosphate (pH 7.4) and 0.3 ml rat liver 9,000×g supernatant. The media were then incubated for 1 hour at 37° C. Controls consisted of a sample containing the complete medium and substrate which was not incubated, a sample containing only phosphate buffer and substrate, and a sample containing the complete medium but lacking substrate.
The incubation media were fractionated with a Waters C-18 SEP-PAK. Prior to sample application, the SEP-PAK was washed with 10 ml of methanol and 20 ml of water. After sample application, the SEP-Pak was washed with 10 ml of water and 3 ml of methanol. The amount of the liberated compound of formula II was measured by high pressure liquid chromatography on a 30-cm Waters μ-Bondapak C-18 column, equilibrated with 70:30:1 methanol:water:ammonium hydroxide.

Setting [3] is: single i.m. 100% BAR dose in sesame oil.

Structures are written as SMILES. Values joined by “and” are separate entries in the source; they are usually repeats but may differ in a detail not shown here. Identical values can stand only once.

T1 sequence (P61169 whole entry): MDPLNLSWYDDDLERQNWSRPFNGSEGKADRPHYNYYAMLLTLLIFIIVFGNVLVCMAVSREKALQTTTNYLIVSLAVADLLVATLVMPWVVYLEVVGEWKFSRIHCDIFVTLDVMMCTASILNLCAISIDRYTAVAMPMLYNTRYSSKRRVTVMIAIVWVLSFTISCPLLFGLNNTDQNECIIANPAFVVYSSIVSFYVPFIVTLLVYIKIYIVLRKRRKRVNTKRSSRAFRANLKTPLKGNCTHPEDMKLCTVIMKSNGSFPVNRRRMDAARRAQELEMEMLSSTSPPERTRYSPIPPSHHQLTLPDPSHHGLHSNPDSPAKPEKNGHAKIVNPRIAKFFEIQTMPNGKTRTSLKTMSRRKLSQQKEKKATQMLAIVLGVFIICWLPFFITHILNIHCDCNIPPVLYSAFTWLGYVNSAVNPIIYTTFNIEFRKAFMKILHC

`CCc1c2c(n(C(=O)C(C)(C)CCOC(C)=O)c1C)C[C@H]1CCN(C)C[C@@H]1C2=O` (relative stereo) [Ia]: in data set [1], the ED50 was 0.6 mg/kg and the ED (90-100) was determined as 3 mg/kg. Also, in data set [1] (setting [3]), the “Duration: % BAR, Day 1” value came out at 90% and the “Duration: % BAR, Day 2” value worked out at 50%. Moreover, the IC50 on dopamine receptors is 250 nM. Further, in data set [2], the metabolised at 1 h stood at 88 ± 2%.

Regarding `CCCCCCCC(=O)OCCC(C)(C)C(=O)n1c(C)c(CC)c2c1C[C@H]1CCN(C)C[C@@H]1C2=O` (relative stereo) [Ib, 2,6-Dimethyl-1-[2,2-dimethyl-4-[(1-oxooctyl)oxy]-1-oxobutyl]-3-ethyl-1,4a,5,6,7,8,8a,9-octahydro-4a,8a-trans-4H-pyrrolo[2,3-g]isoquinolin-4-one], the IC50 at dopamine receptors came out at 195 nM. Also, the metabolised at 1 h in data set [2] amounted to 104 ± 3.3%.

As for `CCCCCCCCCC(=O)OCCC(C)(C)C(=O)n1c(C)c(CC)c2c1C[C@H]1CCN(C)C[C@@H]1C2=O` (relative stereo) [Ic, 2,6-Dimethyl-1-[2,2-dimethyl-4-[(1-oxodecyl)oxy]-1-oxo-butyl]-3-ethyl-1,4a,5,6,7,8,8a,9-octahydro-4a,8a-trans-4H-pyrrolo[2,3-g]isoquinolin-4-one], in data set [1], the ED50 amounted to 3.6 mg/kg and the ED (90-100) came to 10 mg/kg. Besides, in data set [1] (setting [3]), the “Duration: % BAR, Day 1” value turned out to be 100% and the “Duration: % BAR, Day 2” value came out at 100%. Also, the “Duration: % BAR, Day 3” value in data set [1] (single i.m. 100% BAR dose in sesame oil, Day 3) worked out at 100%. Moreover, the “Duration: % BAR, Day 4” value in data set [1] (single i.m. 100% BAR dose in sesame oil, Day 4) is recorded as 90%. Further, in data set [1] (single i.m. 100% BAR dose in sesame oil, Day 5), the “Duration: % BAR, Day 5” value is on record as 80%. Besides, the “Duration: % BAR, Day 6-13” value in data set [1] (single i.m. 100% BAR dose in sesame oil, Days 6-13) was 50-60%. The IC50 at dopamine receptors is 870 nM and 1000 nM. The metabolised at 1 h in data set [2] is 102%.

Take `CCCCCCCCCCCC(=O)OCCC(C)(C)C(=O)n1c(C)c(CC)c2c1C[C@H]1CCN(C)C[C@@H]1C2=O` (relative stereo) [Id, 2,6-Dimethyl-1-[2,2-dimethyl-4-[(1-oxododecyl)oxy]-1-oxobutyl]-3-ethyl-1,4a,5,6,7,8,8a,9-octahydro-4a,8a-trans-4H-pyrrolo[2,3-g]isoquinolin-4-one]: the IC50 on dopamine receptors worked out at 570 nM. Besides, the metabolised at 1 h in data set [2] is 77.2 ± 0.8%.

On to `CCCCCCCCCCCCCCCC(=O)OCCC(C)(C)C(=O)n1c(C)c(CC)c2c1C[C@H]1CCN(C)C[C@@H]1C2=O` (relative stereo) [Ie, 2,6-Dimethyl-1-[2,2-dimethyl-4-[(1-oxohexadecyl)oxy]-1-oxobutyl]-3-ethyl-1,4a,5,6,7,8,8a,9-octahydro-4a,8a-trans-4H-pyrrolo[2,3-g]isoquinolin-4-one], for which, in data set [1], the ED50 worked out at 17 mg/kg and the ED (90-100) was 30 mg/kg. In data set [1] (setting [3]), the “Duration: % BAR, Day 1” value was 100% and the “Duration: % BAR, Day 2” value was found to be 10%. For the same compound, the IC50 at dopamine receptors came out at 640 nM. Also, in data set [2], the metabolised at 1 h was 31 ± 1%.

For `CCCCCCCCCCCCCCCCCC(=O)OCCC(C)(C)C(=O)n1c(C)c(CC)c2c1C[C@H]1CCN(C)C[C@@H]1C2=O` (relative stereo) [If, 2,6-Dimethyl-1-[2,2-dimethyl-4-[(1-oxooctadecyl)oxy]-1-oxobutyl]-3-ethyl-1,4a,5,6,7,8,8a,9-octahydro-4a,8a-trans-4H-pyrrolo[2,3-g]isoquinolin-4-one], in data set [1], the ED50 was 16.2 mg/kg and the ED (90-100) amounted to 30 mg/kg. Also, in data set [1] (setting [3]), the “Duration: % BAR, Day 1” value was 100% and the “Duration: % BAR, Day 2” value is 10%. At dopamine receptors, the IC50 came out at 1000 nM. The metabolised at 1 h in data set [2] was found to be 12.1 ± 0.4%.

Regarding `CCCCCCCCCCCCCCCCCCCC(=O)OCCC(C)(C)C(=O)n1c(C)c(CC)c2c1C[C@H]1CCN(C)C[C@@H]1C2=O` (relative stereo) [Ig, 2,6-Dimethyl-1-[2,2-dimethyl-4-[(1-oxoeicosanoyl)oxy]-1-oxobutyl]-3-ethyl-1,4a,5,6,7,8,8a,9-octahydro-4a,8a-trans-4H-pyrrolo[2,3-g]isoquinolin-4-one], in data set [1], the ED50 worked out at 13.8 mg/kg and the ED (90-100) came out at 30 mg/kg. In data set [1] (setting [3]), the “Duration: % BAR, Day 1” value stood at 100% and the “Duration: % BAR, Day 2” value is 10%. Moreover, the IC50 on dopamine receptors came to 1000 nM. Also, in data set [2], the metabolised at 1 h is 11.7 ± 0.7%.

What is called ED50 is the dose that gives a 50% effect, or the effect in half of the subjects. The term IC50 denotes the concentration that gives 50% inhibition.
